We go through one molecule from US11899025B2, “Pharmaceutical composition for preventing or treating neurodegenerative diseases comprising COX2 acetylating agent as active ingredient” (KYUNGPOOK NATIONAL UNIVERSITY INDUSTRY-ACADEMIC COOPERATION …, priority 2018, dated 2024).

This test concerns APP/PS1 mice. Kind of test: Alzheimer's animal model (APP/PS1 mice): immunofluorescence, Thioflavin S, Morris Water Maze. The test is classed as in vivo, mouse. The conditions noted are these: 7-month-old APP/PS1 mice, 5 mg/kg N-acetyl sphingosine, 1 mg/kg FTY720 or 3 uM S1P daily for 4 weeks, intraperitoneal. An excerpt: It has been approved for mouse experiments by the Kyungpook National University Institutional Animal Care and Use Committee (IACUC). A transgenic mouse line overexpressing APPswe (hAPP695swe) or PS1 (presenilin-1M146V) based on C57BL/6 mice (Charles River, UK) was used. [Hereinafter, APP mouse: mouse overexpressing APPswe, PS1 mouse: mouse overexpressing presenilin-1M146V; GlaxoSmithKline]. As an Alzheimer's (AD) animal model, SphK1 tg (SphK1 gene overexpressing mouse) was crossed with APP mice and APP/PS1 mice to prepare APP/PS1/SphK1 tg mice. Niemanpick (NP-C) animal model, Balb/C (Orient, Wild type), NPC mutant mouse lacking NPC1 gene (Provided by Riken, Japan, NP-C mice; less weight than normal mice of the same age, and severe motor function loss from 4 to 6 weeks of age, limb tremors and seizures appear, and lifespan is approximately 9 to 10 weeks. Is) was used. As an animal model for amyotrophic lateral sclerosis (ALS), a transgenic mouse (FUS) line overexpressing RUS R521C based on C57BL/6 mice (Charles River, UK) was used.
After fixing the cerebral and hippocampus of the mouse, anti-20G10 (mouse, 1:1000) against amyloid-β (Aβ) 42 and anti-G30 (rabbit, 1:1000) against Aβ 40, anti-MAP2 (chicken, 1:2000), anti-Synaptophysin (mouse, 1:100), anti-Synapsin1 (rabbit, 1:500), anti-PSD95 (mouse, 1:100), anti-Iba-1 (rabbit, 1:500), Anti-GFAP (rabbit, 1:500) was cultured together. The site was analyzed using a laser scanning confocal microscope or Olympus BX51 microscope equipped with Fluoview SV1000 imaging software (Olympus FV1000, Japan). Metamorph software (Molecular Devices) was used to quantify the percentage of the area of the stained area relative to the area of the total tissue.
In order to confirm the potential effect on learning and memory, MWM (Morris water maze) and fear conditioning experiments were performed. MWM learned the task 4 times a day for 10 days for the mice, the platform was removed on the 11th day, and a probe trial was performed. On the first day of Fear conditioning, the mice were placed in a conditioning chamber, and sound stimulation (10 kHz, 70 dB) and electrical stimulation (0.3 mA, 1 s) were given. On the second day, memory for the space was checked without stimulation in the same conditioning chamber as on the first day, and on the third day, a memory test for fear was performed when only sound stimulation was given in another conditioning chamber. An open field test was performed to evaluate motor ability and immediate activity. In the open field test, the mice were placed in a square box for 10 minutes to measure the overall exercise power, time, and distance.
In order to measure the neuroinflammatory resolution factor, after culturing neurons from mouse cerebrum, CM was prepared by treatment with 10 nM N-acetyl sphingosine 1 phosphate (Toronto Research chemicals, C262710) and N-acetyl sphingosine (Sigma, 01912). For COX2 acetylation analysis, neurons were cultured from mouse cerebrum and then treated with 2 uCi [^14C]N-acetyl sphingosine (ARC, ARC1024). In addition, for in vivo experiments, 7-month-old APP/PS1 mice were injected with 5 mg/kg N-acetyl sphingosine (Sigma, 01912), 1 mg/kg FTY720 and 3 uM S1P daily for 4 weeks via intraperitoneal injection. 1 month-old NPC mice were injected with 5 mg/kg N-acetyl sphingosine (Sigma, 01912) and 2-month-old FUS mice with 30 mg/kg N-acetyl sphingosine (Sigma, 01912) daily for 4 weeks via subcutaneous injection.
The present inventors confirmed AD lesions by injecting N-acetyl sphingosine, one of the COX2 acetylating agents identified through the above experiment, into an APP/PS1 animal model. First, in order to determine the effect of N-acetyl sphingosine on the neuroinflammatory response by secreting neuroinflammatory resolution factor, changes in microglia and astrocytes were observed. […]

As for `CCCCCCCCCCCCC/C=C/[C@@H](O)[C@H](CO)NC(C)=O` [N-acetyl sphingosine], the “microglia (Iba1) in brain cortex vs APP/PS1 mice” value (FIG. 9a) is recorded as “remarkable decrease”. Further, where the note is “FIG. 9b”, the “astrocytes (GFAP) in brain cortex vs APP/PS1 mice” value is listed as “remarkable decrease”. Further, the “amount of Aβ / Aβ deposition (Thioflavin S) vs APP/PS1 mice” value (FIG. 9c) is “significantly lower”. Besides, for the setting “FIG. 9d”, the “memory and cognition (Morris Water Maze) vs APP/PS1 mice” value was “improved”.
